Test results: publication PMC10301092, “New Insights into the Opioid Analgesic Profile of cis-(−)-N-Normetazocine-derived Ligands” (Molecules, 2023)
Where “and” joins values, the source holds several entries; their conditions need not be identical. Equal entries are not always repeated. Where two headings read alike, the source gives them in different places.

Legend:
sigma-1 receptor (σ1R) [1] = biological target: T1, sigma-1 receptor (σ1R) (Homo sapiens, UniProt Q99720); assay: σ1R radioligand binding assay
T1 sequence (Q99720 whole entry, species assumed): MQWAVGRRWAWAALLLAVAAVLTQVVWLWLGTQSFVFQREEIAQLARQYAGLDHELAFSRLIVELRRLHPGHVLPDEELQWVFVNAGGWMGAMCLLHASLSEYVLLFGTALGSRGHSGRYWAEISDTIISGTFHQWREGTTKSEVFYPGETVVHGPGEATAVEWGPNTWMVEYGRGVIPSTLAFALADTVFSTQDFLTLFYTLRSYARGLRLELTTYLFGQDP
Procedure: (§1) The radioligand binding assays and the data analysis were performed as previously reported [24].

sigma-2 receptor (σ2R) [2] = biological target: T2, sigma-2 receptor (σ2R) (Homo sapiens, UniProt Q5BJF2); assay: σ2R radioligand binding assay
T2 sequence (Q5BJF2 whole entry): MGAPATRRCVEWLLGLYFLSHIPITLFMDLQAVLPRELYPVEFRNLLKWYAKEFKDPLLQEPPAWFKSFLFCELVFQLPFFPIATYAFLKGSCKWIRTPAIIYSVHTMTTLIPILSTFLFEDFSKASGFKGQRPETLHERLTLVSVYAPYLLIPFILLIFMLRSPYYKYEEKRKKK
Procedure: as §1

MOR = biological target: T3, MOR (Mus musculus, UniProt P42866); assay: MVD assay, Ke with naloxone / against DAMGO (MOR); format: cell-based; conditions: for functional profile at MOR: MVD, result in words; for Ke ± SEM (nM) Naloxone (MOR): Ke of naloxone against the listed agonist in isolated MVD, single-dose method, n = 5–9
T3 construct: vasa deferentia were removed from the mice; from tissue; host or cells: vas deferens of male NMRI mice
T3 sequence (P42866 whole entry): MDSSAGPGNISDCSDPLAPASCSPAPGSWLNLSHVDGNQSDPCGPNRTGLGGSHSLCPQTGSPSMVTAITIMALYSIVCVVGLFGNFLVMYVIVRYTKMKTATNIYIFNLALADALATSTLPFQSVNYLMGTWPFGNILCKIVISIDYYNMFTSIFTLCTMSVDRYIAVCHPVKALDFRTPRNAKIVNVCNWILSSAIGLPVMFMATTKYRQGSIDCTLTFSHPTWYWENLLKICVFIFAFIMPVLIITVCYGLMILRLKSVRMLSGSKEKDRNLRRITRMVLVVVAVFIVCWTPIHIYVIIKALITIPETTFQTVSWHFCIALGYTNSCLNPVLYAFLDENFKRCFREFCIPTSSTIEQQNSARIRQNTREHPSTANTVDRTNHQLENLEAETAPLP
Procedure: (§2) Isolated mouse vas deferens. The preparation of MVD was carried out as previously described by Hughes et al. [25] with minor modifications. Briefly, vasa deferentia were removed from the mice and unsheathed from the surrounding fat, connective tissue, and blood vessels. […] The upper end of the isolated organ was attached to a transducer using a thread and connected to a computer via an amplifier (PowerLab 4/20, ADInstruments, Castle Hill, NSW, Australia). The resting tension was adjusted to 0.1 g. Electrical field stimulation was applied through trains of 10 Hz with 10 rectangular impulses at a 1 ms pulse width, 9 V/cm (i.e., supramaximal intensity), repeated with 0.1 Hz (Stimulator 88, Grass Medical Instruments, Quincy, MA, USA).
(§3) Data analysis. The efficacy of each test compound to inhibit electrically evoked contraction was measured as the percentage change from baseline. […] Data are presented as the mean ± SEM. Ke values were calculated using dose ratio and the single-dose method [26]. Statistical analysis was performed with one-way ANOVA, followed by the Newman–Keuls post hoc test.

μ opioid receptor (MOR) [3] = biological target: T4, μ opioid receptor (MOR) (Homo sapiens, UniProt P35372); assay: MOR radioligand binding assay
T4 sequence (P35372 whole entry, species assumed): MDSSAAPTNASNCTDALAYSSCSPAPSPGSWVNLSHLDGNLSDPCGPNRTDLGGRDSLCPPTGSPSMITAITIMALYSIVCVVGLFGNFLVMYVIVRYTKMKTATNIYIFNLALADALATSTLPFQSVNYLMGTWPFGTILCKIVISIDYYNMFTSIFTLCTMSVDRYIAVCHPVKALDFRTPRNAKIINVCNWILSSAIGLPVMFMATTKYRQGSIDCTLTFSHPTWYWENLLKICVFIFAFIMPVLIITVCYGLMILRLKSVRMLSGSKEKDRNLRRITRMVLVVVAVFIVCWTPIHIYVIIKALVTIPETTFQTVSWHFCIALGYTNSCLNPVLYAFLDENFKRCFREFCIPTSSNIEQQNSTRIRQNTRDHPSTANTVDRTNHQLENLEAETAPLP

δ opioid receptor (DOR) = δ opioid receptor (DOR) (Homo sapiens, UniProt P41143); assay: DOR radioligand binding assay
Chain of δ opioid receptor (DOR) (P41143 whole entry): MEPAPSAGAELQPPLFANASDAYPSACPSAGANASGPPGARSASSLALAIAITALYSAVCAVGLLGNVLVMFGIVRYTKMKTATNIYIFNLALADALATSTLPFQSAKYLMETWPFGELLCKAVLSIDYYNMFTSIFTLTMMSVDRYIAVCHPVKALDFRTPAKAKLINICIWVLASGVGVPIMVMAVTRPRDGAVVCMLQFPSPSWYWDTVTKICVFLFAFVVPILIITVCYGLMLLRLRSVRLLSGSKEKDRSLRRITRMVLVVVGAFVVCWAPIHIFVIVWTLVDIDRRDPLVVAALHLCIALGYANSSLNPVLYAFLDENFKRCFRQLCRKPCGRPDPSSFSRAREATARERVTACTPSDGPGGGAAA

κ opioid receptor (KOR) [4] = biological target: T5, κ opioid receptor (KOR) (Homo sapiens, UniProt P41145); assay: KOR radioligand binding assay
T5 sequence (P41145 whole entry): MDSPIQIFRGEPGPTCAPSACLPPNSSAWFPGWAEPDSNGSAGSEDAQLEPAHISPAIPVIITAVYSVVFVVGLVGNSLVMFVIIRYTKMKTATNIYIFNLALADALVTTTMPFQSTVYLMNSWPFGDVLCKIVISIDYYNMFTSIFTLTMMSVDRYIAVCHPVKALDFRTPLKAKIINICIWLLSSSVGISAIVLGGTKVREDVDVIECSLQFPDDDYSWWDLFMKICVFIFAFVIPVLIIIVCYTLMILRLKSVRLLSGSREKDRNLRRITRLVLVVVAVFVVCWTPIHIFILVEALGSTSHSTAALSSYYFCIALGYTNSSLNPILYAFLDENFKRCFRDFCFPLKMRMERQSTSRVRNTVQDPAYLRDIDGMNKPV

KOR = biological target: T6, KOR (Mus musculus, UniProt P33534); assay: MVD assay, Ke with nor-BNI (KOR); format: cell-based; conditions: Ke of nor-BNI against the listed agonist in isolated MVD; n = 5–9
T6 construct: vasa deferentia were removed from the mice; from tissue; host or cells: vas deferens of male NMRI mice
T6 sequence (P33534 whole entry): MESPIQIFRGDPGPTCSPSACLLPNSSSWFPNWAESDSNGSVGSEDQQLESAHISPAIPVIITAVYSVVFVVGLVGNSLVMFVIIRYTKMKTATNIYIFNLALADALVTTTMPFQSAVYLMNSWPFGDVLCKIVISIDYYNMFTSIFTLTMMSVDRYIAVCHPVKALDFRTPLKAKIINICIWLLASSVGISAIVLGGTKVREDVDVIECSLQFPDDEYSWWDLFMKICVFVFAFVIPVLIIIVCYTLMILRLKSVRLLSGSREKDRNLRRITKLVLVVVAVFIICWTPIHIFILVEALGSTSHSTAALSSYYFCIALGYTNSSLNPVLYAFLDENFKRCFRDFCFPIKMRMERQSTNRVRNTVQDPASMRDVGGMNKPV
Procedure: as §2, §3

Male Swiss CD1 mice = assay: Thermal acute pain model (radiant heat tail-flick test); format: in vivo, mouse
Procedure: Thermal acute pain model (tail-flick test). Male Swiss CD1 mice (Envigo Laboratories, S. Pietro al Natisone (UD)) weighing 25–30 g were housed at six per cage, kept at a constant room temperature (25 ± 1 °C), under a 12:12 h light-and-dark cycle with food and water ad libitum. Each mouse was used for only one experiment. […] The radiant heat tail-flick test consists of irradiation of the lower third of the tail with an infrared source (Ugo Basile, Comerio, Italy). The day before the experiment, performed at room temperature (25 ± 1 °C), mice were habituated to the procedure for measuring the nociception threshold. The basal predrug latency was established between 3 and 6 s and was calculated as the average of the first three measurements, which were performed at 5 min intervals. A cutoff latency of 15 s was established to minimize damage to the tail. All tested compounds were dissolved in pyrogen-free isotonic saline (Baxter Healthcare, Deerfield, IL, USA) and DMSO (5%) and were administered to mice i.p. Post-treatment tail-flick latencies (TFLs) were determined at 15, 30, 45, 60, and 90 min after i.p. injection.

mouse vas deferens (MVD) = assay: Isolated mouse vas deferens (MVD): inhibition of electrically evoked contractions; format: cell-based; conditions: for IC50: 50% inhibitory concentration on electrically evoked contractions of isolated MVD, n = 5–9
Procedure: Animals. Male NMRI mice (Toxicoop Zrt., Budapest, Hungary) weighing 35–45 g were kept in groups in a temperature- and humidity-controlled room under a 12 h light/dark cycle and with food and water available ad libitum. Each animal was used for one experiment.
Isolated mouse vas deferens. The preparation of MVD was carried out as previously described by Hughes et al. with minor modifications. Briefly, vasa deferentia were removed from the mice and unsheathed from the surrounding fat, connective tissue, and blood vessels. They were then suspended between an upper (ring) and a lower (straight) electrode positioned at 5.5 cm, in 5 mL organ baths containing Krebs solution (concentrations in mM: NaCl, 118.0; NaHCO3, 25.0; KCl, 4.7; KH2PO4, 1.2; glucose, 11.0; CaCl2, 2.5; and MgSO4, 1.2) aerated with a gas mixture of 95% O2 and 5% CO2 and at a constant temperature of 36 °C. The upper end of the isolated organ was attached to a transducer using a thread and connected to a computer via an amplifier (PowerLab 4/20, ADInstruments, Castle Hill, NSW, Australia). The resting tension was adjusted to 0.1 g. Electrical field stimulation was applied through trains of 10 Hz with 10 rectangular impulses at a 1 ms pulse width, 9 V/cm (i.e., supramaximal intensity), repeated with 0.1 Hz (Stimulator 88, Grass Medical Instruments, Quincy, MA, USA).
Experimental paradigms. The experimental design of MVD required a 50 min equilibration period under electrical field stimulation, during which Krebs solution was changed every 5 min. After the equilibration period, test compounds were added cumulatively, allowing a minimum of 2 min between doses. To determine the test compounds’ dissociation constant, Ke, vasa deferentia were preincubated with the antagonist naloxone, and without washing a single concentration of the agonist test, the compound was added.
Data analysis. The efficacy of each test compound to inhibit electrically evoked contraction was measured as the percentage change from baseline. […] Data are presented as the mean ± SEM. Ke values were calculated using dose ratio and the single-dose method. […]

Male Wistar rats = assay: Inflammatory pain model (CFA-evoked hyperalgesia, Randall–Selitto paw pressure threshold); format: in vivo, rat; conditions: s.c.
Procedure: Inflammatory pain model (CFA-evoked hyperalgesia). Male Wistar rats (190–250 g) (Toxicoop Zrt., Budapest, Hungary) under brief isoflurane (Willy Rüsch GmbH, Böblingen, Germany) anesthesia received i.pl. injection of 0.15 mL complete Freund’s adjuvant (CFA) (source), a water-in-oil emulsion of killed mycobacterium, into the right hind paw. The experimental procedures were performed as described previously.
Experimental paradigms of CFA-evoked hyperalgesia. The measurement of the effect of the test compound was carried out 4 days following i.pl. CFA injection as described previously. Briefly, the baseline (pretest compound) of the paw pressure threshold (PPT) of both inflamed and noninflamed paws was determined. Next, the drug or vehicle was s.c. administered at a volume of 5 mL/kg body weight. Then, the response threshold to mechanical pressure stimulation of inflamed and noninflamed paws was given as paw pressure thresholds (PPTs) and measured at 30 and 60 min post administration using an arbitrary cutoff weight of twice the baseline.

DOR = biological target: T7, DOR (Mus musculus, UniProt P32300); assay: MVD assay, Ke with naltrindole (DOR); format: cell-based; conditions: Ke of naltrindole against the listed agonist in isolated MVD; n = 5–9
T7 construct: vasa deferentia were removed from the mice; from tissue; host or cells: vas deferens of male NMRI mice
T7 sequence (P32300 whole entry): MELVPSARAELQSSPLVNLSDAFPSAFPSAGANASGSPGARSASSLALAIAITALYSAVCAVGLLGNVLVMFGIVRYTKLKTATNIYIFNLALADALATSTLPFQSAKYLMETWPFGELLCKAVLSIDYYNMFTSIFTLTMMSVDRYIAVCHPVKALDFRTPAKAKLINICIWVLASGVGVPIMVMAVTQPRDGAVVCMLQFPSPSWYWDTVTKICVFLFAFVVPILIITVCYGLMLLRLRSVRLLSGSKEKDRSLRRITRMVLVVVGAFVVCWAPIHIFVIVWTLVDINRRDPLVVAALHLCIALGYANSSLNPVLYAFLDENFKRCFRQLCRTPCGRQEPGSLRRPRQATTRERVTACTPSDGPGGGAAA
Procedure: as §2
Experimental paradigms. The experimental design of MVD required a 50 min equilibration period under electrical field stimulation, during which Krebs solution was changed every 5 min. […]
Data analysis. The efficacy of each test compound to inhibit electrically evoked contraction was measured as the percentage change from baseline. […] Ke values were calculated using dose ratio and the single-dose method [26]. […]

sigma-2 receptor (σ2R) [5] = biological target: T2, sigma-2 receptor (σ2R); conditions: read-out: Ki (nM) ± SD σ2R; cited from earlier work
κ opioid receptor (KOR) [6] = biological target: T5, κ opioid receptor (KOR); conditions: read-out: Ki (nM) ± SD KOR; cited from earlier work
sigma-1 receptor (σ1R) [7] = biological target: T1, sigma-1 receptor (σ1R); conditions: read-out: Ki (nM) ± SD σ1R; cited from earlier work
μ opioid receptor (MOR) [8] = biological target: T4, μ opioid receptor (MOR); conditions: read-out: Ki (nM) ± SD MOR; cited from earlier work
[9] = mean ± SD of at least two experiments in duplicate, read-out: Ki (nM) ± SD MOR
[10] = mean ± SD of at least two experiments in duplicate, read-out: Ki (nM) ± SD DOR
[11] = mean ± SD of at least two experiments in duplicate, read-out: Ki (nM) ± SD KOR

Structure (SMILES): CN1CCN(CCc2ccc(Cl)c(Cl)c2)CC1 [BD-1063, reference compound]
- Ki (sigma-1 receptor (σ1R) [1]; mean ± SD of at least two experiments in duplicate, read-out: Ki (nM) ± SD σ1R): 14 ± 2.7 nM

Structure (SMILES): C[C@H]1[C@H]2Cc3ccc(O)cc3[C@]1(C)CCN2CCC(=O)Nc1ccccc1N [Compound 3, N-(2-aminophenyl)-3-((2R,6R,11R)-8-hydroxy-6,11-dimethyl-1,4,5,6-tetrahydro-2,6-methanobenzo[d]azocin-3(2H)-yl)propanamide]
- Ki (sigma-1 receptor (σ1R) [1]): > 10000 nM
- Ki (sigma-2 receptor (σ2R) [2]): > 10000 nM
- functional profile at MOR (MOR): antagonist
- Ki (μ opioid receptor (MOR) [3]): 5.96 ± 0.08 nM
- Ki (δ opioid receptor (DOR)): 155 ± 1.5 nM
- Ki (κ opioid receptor (KOR) [4]): 93 ± 0.63 nM

Structure (SMILES): C[C@@H]1[C@@H]2Cc3ccc(O)cc3[C@@]1(C)CCN2CCC(=O)Nc1ccccc1N [Compound 4, N-(2-aminophenyl)-3-((2S,6S,11S)-8-hydroxy-6,11-dimethyl-1,4,5,6-tetrahydro-2,6-methanobenzo[d]azocin-3(2H)-yl)propanamide]
- Ki (sigma-1 receptor (σ1R) [1]): 729 ± 168 nM
- Ki (sigma-2 receptor (σ2R) [2]): > 10000 nM
- Ki (μ opioid receptor (MOR) [3]): 408 ± 11 nM
- Ki (δ opioid receptor (DOR)): 3120 ± 73 nM
- Ki (κ opioid receptor (KOR) [4]): 154 ± 6 nM

Structure (SMILES): C[C@H]1[C@H]2Cc3ccc(O)cc3[C@]1(C)CCN2CCCC(=O)Nc1ccccc1N [Compound 5, N-(2-aminophenyl)-4-((2R,6R,11R)-8-hydroxy-6,11-dimethyl-1,4,5,6tetrahydro-2,6-methanobenzo[d]azocin-3(2H)-yl)butanamide]
- Ki (sigma-1 receptor (σ1R) [1]): > 10000 nM
- Ki (sigma-2 receptor (σ2R) [2]): > 10000 nM
- Ki (μ opioid receptor (MOR) [3]; [9]): 479 ± 10 nM
- Ki (δ opioid receptor (DOR); [10]): 1030 ± 16 nM
- Ki (κ opioid receptor (KOR) [4]; [11]): 970 ± 21 nM

Structure (SMILES): C[C@@H]1[C@@H]2Cc3ccc(O)cc3[C@@]1(C)CCN2CCCC(=O)Nc1ccccc1N [Compound 6, N-(2-aminophenyl)-4-((2S,6S,11S)-8-hydroxy-6,11-dimethyl-1,4,5,6tetrahydro-2,6-methanobenzo[d]azocin-3(2H)-yl)butanamide]
- Ki (sigma-1 receptor (σ1R) [1]): 857 ± 212 nM
- Ki (sigma-2 receptor (σ2R) [2]): > 10000 nM
- Ki (μ opioid receptor (MOR) [3]; [9]): 810 ± 15 nM
- Ki (δ opioid receptor (DOR); [10]): 4190 ± 60 nM
- Ki (κ opioid receptor (KOR) [4]; [11]): 2455 ± 11 nM

Structure (SMILES): C[C@H]1[C@H]2Cc3ccc(O)cc3[C@]1(C)CCN2CCC(=O)Nc1ccccn1 [Compound 7, 3-((2R,6R,11R)-8-hydroxy-6,11-dimethyl-1,4,5,6-tetrahydro-2,6-methanobenzo[d]azocin-3(2H)-yl)-N-(pyridin-2-yl)propanamide]
- Ke ± SEM (nM) Nor-BNI (KOR) (KOR): 68.18 ± 15.98 nM
- Ki (sigma-1 receptor (σ1R) [1]): > 10000 nM
- effect on mean tail-flick latency (Male Swiss CD1 mice; i.p., 3, 4, and 5 mg/kg, compared with vehicle group): increased the mean tail-flick latency
- time of highest antinociceptive effect (Male Swiss CD1 mice; tail-flick, after i.p. injection): 45 min and 30 to 45 min
- IC50 (mouse vas deferens (MVD); Mus musculus): 66.88 ± 0.38 nM
- effect on electrically evoked MVD smooth muscle contractions (mouse vas deferens (MVD); result in words): concentration-dependent inhibitory effect
- Ki (sigma-2 receptor (σ2R) [2]): > 10000 nM
- Ke ± SEM (nM) Naloxone (MOR) (MOR): 2.42 ± 0.45 nM
- functional profile at MOR (MOR): agonist
- Ki (μ opioid receptor (MOR) [3]): 1.49 ± 0.24 nM
- Ki (δ opioid receptor (DOR)): 138 ± 5 nM
- restoring hyperalgesia of inflamed paws (PPT) (Male Wistar rats; 5000 and 2500 µg/kg, at 30 and 60 min): effective
- effect on noninflamed PPT (Male Wistar rats; in certain doses, compared with vehicle): significantly increase the noninflamed PPT
- restoring hyperalgesia of inflamed paws (PPT) (Male Wistar rats; lower doses of the range 625–5000 µg/kg): tendency of antinociceptive effect
- Ki (κ opioid receptor (KOR) [4]): 64 ± 7 nM

Structure (SMILES): C[C@@H]1[C@@H]2Cc3ccc(O)cc3[C@@]1(C)CCN2CCC(=O)Nc1ccccn1 [Compound 8, 3-((2S,6S,11S)-8-hydroxy-6,11-dimethyl-1,4,5,6-tetrahydro-2,6-methanobenzo[d]azocin-3(2H)-yl)-N-(pyridin-2-yl)propanamide]
- Ki (sigma-1 receptor (σ1R) [1]): 2510 ± 737 nM
- Ki (sigma-2 receptor (σ2R) [2]): > 10000 nM
- Ki (μ opioid receptor (MOR) [3]): 563 ± 23 nM
- Ki (δ opioid receptor (DOR)): > 10000 nM
- Ki (κ opioid receptor (KOR) [4]): 1380 ± 20 nM

Structure (SMILES): CC1(C)SSC(C)(C)[C@@H](NC(=O)[C@@H](N)Cc2ccc(O)cc2)C(=O)NCC(=O)N[C@@H](Cc2ccccc2)C(=O)N[C@H]1C(=O)O [DPDPE]
- Ke ± SEM (nM) Nor-BNI (KOR) (KOR): 2.57 ± 1.81 nM

Structure (SMILES): CC[C@@]12CCN(CC3CC3)C(C(=O)c3ccc(O)cc31)[C@@H]2C [EKC, reference compound]
- Ke ± SEM (nM) Nor-BNI (KOR) (KOR): 1.76 ± 0.35 nM
- IC50 (mouse vas deferens (MVD)): 14.1 ± 0.69 nM
- Ke ± SEM (nM) Naloxone (MOR) (MOR): 8.82 ± 0.52 nM
- Ke ± SEM (nM) Naltrindole (DOR) (DOR): 11.47 ± 5.35 nM

Structure (SMILES): C[C@H]1[C@H]2Cc3ccc(O)cc3[C@]1(C)CCN2CCC(=O)Nc1ccccc1 [LP1]
- Ki (sigma-2 receptor (σ2R) [5]): 1680 nM
- Ki (κ opioid receptor (KOR) [6]): 110 ± 6 nM
- Ki Ratios DOR/MOR (μ opioid receptor (MOR) [3]; ratio of Ki DOR to Ki MOR): 35.1
- Ki Ratios KOR/MOR (μ opioid receptor (MOR) [3]; ratio of Ki KOR to Ki MOR): 132.5
- Ki (sigma-1 receptor (σ1R) [7]): 149 ± 4 nM

Structure (SMILES): CCC(=O)N(CC)c1ccccc1 [N-ethyl-N-phenyl-propanamide]
- Ki (μ opioid receptor (MOR) [8]): 136 nM

Structure (SMILES): CCC(=O)N(C)c1ccccc1 [N-methyl-N-phenyl-propanamide]
- Ki (μ opioid receptor (MOR) [8]): 65 nM
